{
  "source": "paper PMC5047880",
  "about": "“Characterization of Linoleate 10-Hydratase of Lactobacillus plantarum and Novel Antifungal Metabolites” (Frontiers in Microbiology, 2016)",
  "test_in_all_cases": "activity of apoenzyme after addition of FAD, LC-APPI-MS",
  "assay_type_in_all_cases": "biochemical",
  "details_in_all_cases": "0.2 mM FAD, 4°C, 24 h; linoleic acid as substrate, MES pH 6.1",
  "key": {"[1]": {"target": "T1, LAH of Lactobacillus hammesii (linoleate 10-hydratase, 10-LAH) (Levilactobacillus hammesii, UniProt A0A1I9RYV0)", "T1 construct": "full length, 564 residues; His-tag from pET-28a(+) (BamHI/HindIII); primers encode MVKTKAVM... and ...ATKRMFS", "T1 sequence (A0A1I9RYV0 1-564)": "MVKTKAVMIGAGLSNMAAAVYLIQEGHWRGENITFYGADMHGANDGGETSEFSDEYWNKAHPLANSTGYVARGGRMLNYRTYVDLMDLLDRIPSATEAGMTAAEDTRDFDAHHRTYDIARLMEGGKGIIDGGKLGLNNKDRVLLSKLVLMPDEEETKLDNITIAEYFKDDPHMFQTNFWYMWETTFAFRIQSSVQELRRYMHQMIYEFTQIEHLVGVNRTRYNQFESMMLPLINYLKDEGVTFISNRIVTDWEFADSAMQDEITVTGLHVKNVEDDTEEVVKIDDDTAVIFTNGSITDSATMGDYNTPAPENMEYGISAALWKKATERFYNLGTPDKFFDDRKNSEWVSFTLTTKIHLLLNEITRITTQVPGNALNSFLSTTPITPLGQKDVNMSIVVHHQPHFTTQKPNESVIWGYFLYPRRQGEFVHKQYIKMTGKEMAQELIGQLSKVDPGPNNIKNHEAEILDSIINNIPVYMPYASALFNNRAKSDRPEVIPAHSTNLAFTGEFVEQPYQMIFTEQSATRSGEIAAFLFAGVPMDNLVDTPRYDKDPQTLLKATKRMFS"}, "[2]": {"target": "T2, LAH of Lactobacillus reuteri (linoleate 10-hydratase, 10-LAH) (Limosilactobacillus reuteri, UniProt A0A1I9RYU8)", "T2 construct": "full length, 590 residues; His-tag from pET-28a(+) (NdeI/NotI); primers encode MYYSNGNY... and ...MEEQHLL", "T2 sequence (A0A1I9RYU8 1-590)": "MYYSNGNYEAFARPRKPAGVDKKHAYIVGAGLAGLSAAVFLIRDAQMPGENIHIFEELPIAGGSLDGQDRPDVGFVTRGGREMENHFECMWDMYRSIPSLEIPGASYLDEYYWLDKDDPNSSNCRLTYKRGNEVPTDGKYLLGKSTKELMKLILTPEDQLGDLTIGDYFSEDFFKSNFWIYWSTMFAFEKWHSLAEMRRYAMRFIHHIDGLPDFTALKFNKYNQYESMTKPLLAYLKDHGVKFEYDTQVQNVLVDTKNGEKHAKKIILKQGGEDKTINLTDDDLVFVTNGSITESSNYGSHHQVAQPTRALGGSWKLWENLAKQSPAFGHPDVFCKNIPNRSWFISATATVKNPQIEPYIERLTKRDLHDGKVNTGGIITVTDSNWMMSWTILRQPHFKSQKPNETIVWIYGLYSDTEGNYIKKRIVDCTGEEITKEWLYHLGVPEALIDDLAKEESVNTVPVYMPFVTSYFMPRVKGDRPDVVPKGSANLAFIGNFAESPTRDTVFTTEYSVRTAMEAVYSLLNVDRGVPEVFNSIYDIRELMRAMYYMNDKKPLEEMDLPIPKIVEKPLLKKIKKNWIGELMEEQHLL"}, "[3]": {"target": "T3, LAH of Lactobacillus plantarum (linoleate 10-hydratase, 10-LAH) (Lactiplantibacillus plantarum, UniProt A0A1I9RYU9)", "T3 construct": "full length, 564 residues; His-tag from pET-28a(+) (EcoRI/NotI); primers encode MVKSKAIM... and ...ATKKMFD", "T3 sequence (A0A1I9RYU9 1-564)": "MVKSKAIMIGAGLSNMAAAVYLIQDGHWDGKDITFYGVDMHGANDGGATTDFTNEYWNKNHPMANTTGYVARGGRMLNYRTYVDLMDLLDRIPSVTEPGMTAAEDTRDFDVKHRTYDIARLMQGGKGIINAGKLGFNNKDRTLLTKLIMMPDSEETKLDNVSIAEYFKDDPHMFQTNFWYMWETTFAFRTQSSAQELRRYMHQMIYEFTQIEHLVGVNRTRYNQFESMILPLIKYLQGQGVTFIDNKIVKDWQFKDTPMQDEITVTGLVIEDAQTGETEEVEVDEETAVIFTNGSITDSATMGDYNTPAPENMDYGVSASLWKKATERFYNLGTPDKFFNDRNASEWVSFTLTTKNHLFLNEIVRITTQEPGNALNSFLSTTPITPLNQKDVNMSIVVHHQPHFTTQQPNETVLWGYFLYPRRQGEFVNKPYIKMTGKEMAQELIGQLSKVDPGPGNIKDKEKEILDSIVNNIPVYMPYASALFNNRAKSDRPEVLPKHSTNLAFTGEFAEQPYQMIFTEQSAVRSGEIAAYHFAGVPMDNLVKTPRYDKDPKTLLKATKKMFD"}, "[4]": {"target": "T4, LAH of Lactobacillus spicheri (linoleate 10-hydratase, 10-LAH) (Levilactobacillus spicheri, UniProt A0A0F3RUK6)", "T4 construct": "gene lai; full length, 564 residues; His-tag from pET-28a(+) (EcoRI/NotI); primers encode MVKTKAVM... and ...ATKKMFS", "T4 sequence (A0A0F3RUK6 1-564)": "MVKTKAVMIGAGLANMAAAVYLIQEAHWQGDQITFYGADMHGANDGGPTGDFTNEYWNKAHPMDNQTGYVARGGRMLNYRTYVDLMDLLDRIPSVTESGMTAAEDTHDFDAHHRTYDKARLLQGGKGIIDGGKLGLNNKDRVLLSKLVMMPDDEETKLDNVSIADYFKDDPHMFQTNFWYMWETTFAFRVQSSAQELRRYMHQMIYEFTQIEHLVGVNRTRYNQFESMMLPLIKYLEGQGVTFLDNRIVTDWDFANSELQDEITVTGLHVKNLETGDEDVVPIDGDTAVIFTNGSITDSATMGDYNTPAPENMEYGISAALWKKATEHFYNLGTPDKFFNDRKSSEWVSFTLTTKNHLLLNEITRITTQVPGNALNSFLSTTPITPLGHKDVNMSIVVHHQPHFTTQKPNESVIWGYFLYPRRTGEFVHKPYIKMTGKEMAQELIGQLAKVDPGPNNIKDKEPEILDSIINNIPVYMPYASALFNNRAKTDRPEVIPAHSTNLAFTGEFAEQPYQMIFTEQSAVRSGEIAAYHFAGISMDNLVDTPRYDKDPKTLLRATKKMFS"}},
  "data": [
    {"smiles": "Cc1cc2nc3c(=O)[nH]c(=O)nc-3n(C[C@H](O)[C@H](O)[C@H](O)COP(=O)(O)OP(=O)(O)OC[C@H]3O[C@@H](n4cnc5c(N)ncnc54)[C@H](O)[C@@H]3O)c2cc1C", "note": "[FAD]", "values": [
      {"measurement": "activity of apoenzyme after addition of FAD, LC-APPI-MS", "setting": "[1]", "value": "The addition of cofactor FAD to apoenzyme was essential for activity"},
      {"measurement": "activity of apoenzyme after addition of FAD, LC-APPI-MS", "setting": "[2]", "value": "The addition of cofactor FAD to apoenzyme was essential for activity"},
      {"measurement": "activity of apoenzyme after addition of FAD, LC-APPI-MS", "setting": "[3]", "value": "The addition of cofactor FAD to apoenzyme was essential for activity"},
      {"measurement": "activity of apoenzyme after addition of FAD, LC-APPI-MS", "setting": "[4]", "value": "The addition of cofactor FAD to apoenzyme was essential for activity"}
    ]}
  ]
}
